Patent publication US9181269B2, “Enantiomers of fluconazole analogues containing thieno-[2,-3-D]pyrimidin-4(3H)-one moiety as antifungal agents” (FDC Limited, priority 2011, dated 2015)
Values after ≈ are worked out from the molar mass of the structure shown.

Key:
[1] = tested on: Candida albicans ATCC 24433; test: MIC by broth dilution, CA01; format: cell-based; conditions: RPMI 1640 pH 7.0, 48 hours; for MIC50: Candida albicans, ATCC24433, concentration exhibiting more than 50% inhibition vs positive control, read-out: MIC50 obtained by broth dilution method, MIC
Method: (§1) The compounds of Formula (1a) and (1b) were tested for antifungal activity against various strains of Candida(CA 01: Candida albicans ATCC 24433, CA 02: C. albicans ATCC 10231, CA 03: C. albicans ATCC 2091, CA 04: C. albicans ATCC 90028, CG 01: C. glabrata ATCC 90030, CK 01: C. Krusei ATCC 6258, CT 01: C. tropicalis ATCC 750). In vitro evaluation of antifungal activity was performed by determining the minimum inhibitory concentration (MIC) following standard broth dilution methods (CLSI: Reference method for broth dilution antifungal susceptibility testing of yeasts; Approved standard, second edition M27-A2, 2002; CLSI: Reference method for broth dilution antifungal susceptibility testing of filamentous fungi; […]. Known anti-fungal agents like Fluconazole and Amphotericin-B were used as standards. End points were determined after 48 hours visually and by using spectrophotometer wherever necessary. The activity parameters are enumerated in Table 10: […]

[2] = tested on: C. albicans ATCC 10231; test: MIC by broth dilution, CA02; format: cell-based, Candida albicans; conditions: RPMI 1640 pH 7.0, 48 hours; for MIC50: Candida albicans, ATCC10231, concentration exhibiting more than 50% inhibition vs positive control, read-out: MIC50 obtained by broth dilution method, MIC
Method: as §1

[3] = tested on: C. albicans ATCC 2091; test: MIC by broth dilution, CA03; format: cell-based, Candida albicans; conditions: RPMI 1640 pH 7.0, 48 hours; for MIC50: Candida albicans, ATCC2091, concentration exhibiting more than 50% inhibition vs positive control, read-out: MIC50 obtained by broth dilution method, MIC
Method: as §1

[4] = tested on: C. albicans ATCC 90028; test: MIC by broth dilution, CA04; format: cell-based, Candida albicans; conditions: RPMI 1640 pH 7.0, 48 hours; for MIC50: Candida albicans, ATCC90028, concentration exhibiting more than 50% inhibition vs positive control, read-out: MIC50 obtained by broth dilution method, MIC
Method: as §1

[5] = tested on: C. glabrata ATCC 90030; test: MIC by broth dilution, CG01; format: cell-based; conditions: RPMI 1640 pH 7.0, 48 hours; for MIC50: Nakaseomyces glabratus, ATCC90030, concentration exhibiting more than 50% inhibition vs positive control, read-out: MIC50 obtained by broth dilution method, MIC
Method: as §1

[6] = tested on: C. Krusei ATCC 6258; test: MIC by broth dilution, CK01; format: cell-based; conditions: RPMI 1640 pH 7.0, 48 hours; for MIC50: Pichia kudriavzevii, ATCC6258, concentration exhibiting more than 50% inhibition vs positive control, read-out: MIC50 obtained by broth dilution method, MIC
Method: as §1

[7] = tested on: C. tropicalis ATCC 750; test: MIC by broth dilution, CT01; format: cell-based; conditions: RPMI 1640 pH 7.0, 48 hours; for MIC50: Candida tropicalis, ATCC750, concentration exhibiting more than 50% inhibition vs positive control, read-out: MIC50 obtained by broth dilution method, MIC
Method: as §1

[8] = concentration exhibiting complete inhibition

## C[C@@H]1[C@H](O)[C@@H](C)/C=C/C=C/C=C/C=C/C=C/C=C/C=C/[C@H](O[C@@H]2O[C@H](C)[C@@H](O)[C@H](N)[C@@H]2O)C[C@@H]2O[C@](O)(C[C@@H](O)C[C@@H](O)[C@H](O)CC[C@@H](O)C[C@@H](O)CC(=O)O[C@H]1C)C[C@H](O)[C@H]2C(=O)O [AMB, Amphotericin-B, reference compound]
[1]; [8]
  MIC in μg/ml (Amphotericin B): 0.25 µg/mL (≈ 0.271 µM)
[2]; [8]
  MIC in μg/ml (Amphotericin B): 0.5 µg/mL (≈ 0.541 µM)
[3]; [8]
  MIC in μg/ml (Amphotericin B): 0.5 µg/mL (≈ 0.541 µM)
[4]; [8]
  MIC in μg/ml (Amphotericin B): 0.5 µg/mL (≈ 0.541 µM)
[5]; [8]
  MIC in μg/ml (Amphotericin B): 0.25 µg/mL (≈ 0.271 µM)
[6]; [8]
  MIC in μg/ml (Amphotericin B): 0.5 µg/mL (≈ 0.541 µM)
[7]; [8]
  MIC in μg/ml (Amphotericin B): 0.5 µg/mL (≈ 0.541 µM)

## OC(Cn1cncn1)(Cn1cncn1)c1ccc(F)cc1F [FLU, Fluconazole]
[1]
  MIC50: 1 µg/mL (≈ 3.27 µM)
[2]
  MIC50: 1 µg/mL (≈ 3.27 µM)
[3]
  MIC50: 0.5 µg/mL (≈ 1.63 µM)
[4]
  MIC50: 0.5 µg/mL (≈ 1.63 µM)
[5]
  MIC50: 4 µg/mL (≈ 13.1 µM)
[6]
  MIC50: 64 µg/mL (≈ 209 µM)
[7]
  MIC50: 2 µg/mL (≈ 6.53 µM)

## CCCCCc1cc2c(=O)n(C[C@@](O)(Cn3cncn3)c3ccc(F)cc3F)cnc2s1 [Formula 1a-02, (R)-3-[2-(2,4-difluorophenyl)-2-hydroxy-3-(1H-1,2,4-triazol-1-yl)propyl]-6-n-pentylthieno[2,3-d]pyrimidin-4(3H)-one]
[1]
  MIC50: 4 µg/mL
[2]
  MIC50: 8 µg/mL
[3]
  MIC50: 8 µg/mL
[4]
  MIC50: 4 µg/mL
[5]
  MIC50: 4 µg/mL
[6]
  MIC50: > 16 µg/mL
[7]
  MIC50: 16 µg/mL

## CCCCCCc1cc2c(=O)n(C[C@](O)(Cn3cncn3)c3ccc(F)cc3F)cnc2s1 [Formula 1b-01, (S)-3-[2-(2,4-Difluorophenyl)-2-hydroxy-3-[1,2,4]triazol-1-yl-propyl]-6-(n-hexyl)-thieno[2,3-d]pyrimidin-4(3H)-one]
[1]
  MIC50: 0.06 µg/mL
[2]
  MIC50: 0.12 µg/mL
[3]
  MIC50: 0.25 µg/mL
[4]
  MIC50: 0.12 µg/mL
[5]
  MIC50: 0.12 µg/mL
[6]
  MIC50: 1 µg/mL
[7]
  MIC50: 0.25 µg/mL

## CCCCCc1cc2c(=O)n(C[C@](O)(Cn3cncn3)c3ccc(F)cc3F)cnc2s1 [Formula 1b-02, (S)-3-[2-(2,4-difluorophenyl)-2-hydroxy-3-(1H-1,2,4-triazol-1-yl)propyl]-6-n-pentylthieno[2,3-d]pyrimidin-4(3H)-one]
[1]
  MIC50: 0.03 µg/mL
[2]
  MIC50: 0.12 µg/mL
[3]
  MIC50: 0.12 µg/mL
[4]
  MIC50: 0.03 µg/mL
[5]
  MIC50: 0.06 µg/mL
[6]
  MIC50: 1 µg/mL
[7]
  MIC50: 0.06 µg/mL

## CCCCCCCc1cc2c(=O)n(C[C@](O)(Cn3cncn3)c3ccc(F)cc3F)cnc2s1 [Formula 1b-03, (S)-3-[2-(2,4-Difluorophenyl)-2-hydroxy-3-[1,2,4]triazol-1-yl-propyl]-6-n-heptyl-thieno[2,3-d]pyrimidin-4(3H)-one]
[1]
  MIC50: 0.12 µg/mL
[2]
  MIC50: 0.5 µg/mL
[3]
  MIC50: 0.5 µg/mL
[4]
  MIC50: 0.25 µg/mL
[5]
  MIC50: 0.25 µg/mL
[6]
  MIC50: 1 µg/mL
[7]
  MIC50: 1 µg/mL

## CCCc1cc2c(=O)n(C[C@](O)(Cn3cncn3)c3ccc(F)cc3F)cnc2s1 [Formula 1b-04, (S)-3-[2-(2,4-Difluorophenyl)-2-hydroxy-3-[1,2,4]triazol-1-yl-propyl]-6-(n-propyl)-thieno[2,3-d]pyrimidin-4(3H)-one]
[1]
  MIC50: 0.03 µg/mL
[2]
  MIC50: 0.06 µg/mL
[3]
  MIC50: 0.03 µg/mL
[4]
  MIC50: 0.03 µg/mL
[5]
  MIC50: 0.03 µg/mL
[6]
  MIC50: 1 µg/mL
[7]
  MIC50: 0.06 µg/mL
